Laboratory results taken from paper PMC7317212 (Chemmedchem, 2020).

Assays:
mGAT3 [1] = target: T1, mGAT3 (Mus musculus, UniProt P31649); conditions: cited from earlier work
T1 construct: expressed in transfected cells; host or cells: HEK293
T1 sequence (P31649 1-602): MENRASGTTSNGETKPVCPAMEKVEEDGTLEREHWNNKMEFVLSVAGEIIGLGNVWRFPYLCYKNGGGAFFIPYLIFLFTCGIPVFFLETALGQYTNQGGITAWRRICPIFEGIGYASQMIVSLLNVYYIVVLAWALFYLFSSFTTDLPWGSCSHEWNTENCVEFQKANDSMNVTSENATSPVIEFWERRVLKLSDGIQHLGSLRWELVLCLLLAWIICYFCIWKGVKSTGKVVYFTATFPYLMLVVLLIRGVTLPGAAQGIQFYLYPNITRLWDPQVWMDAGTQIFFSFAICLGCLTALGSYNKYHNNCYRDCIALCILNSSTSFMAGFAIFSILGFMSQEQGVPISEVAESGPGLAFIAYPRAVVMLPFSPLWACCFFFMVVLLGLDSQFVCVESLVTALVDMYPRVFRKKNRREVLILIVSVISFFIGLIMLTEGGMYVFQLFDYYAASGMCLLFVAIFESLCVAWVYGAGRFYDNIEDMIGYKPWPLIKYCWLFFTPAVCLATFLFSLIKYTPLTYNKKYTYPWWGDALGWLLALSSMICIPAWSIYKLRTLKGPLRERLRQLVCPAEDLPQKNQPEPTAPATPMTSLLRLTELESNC

mGAT2 [2] = target: T2, mGAT2 (Mus musculus, UniProt P31651); conditions: cited from earlier work; for remaining [^3H]GABA uptake mGAT2: in presence of 100 μM compound
T2 construct: expressed in transfected cells; host or cells: HEK293
T2 sequence (P31651 1-614): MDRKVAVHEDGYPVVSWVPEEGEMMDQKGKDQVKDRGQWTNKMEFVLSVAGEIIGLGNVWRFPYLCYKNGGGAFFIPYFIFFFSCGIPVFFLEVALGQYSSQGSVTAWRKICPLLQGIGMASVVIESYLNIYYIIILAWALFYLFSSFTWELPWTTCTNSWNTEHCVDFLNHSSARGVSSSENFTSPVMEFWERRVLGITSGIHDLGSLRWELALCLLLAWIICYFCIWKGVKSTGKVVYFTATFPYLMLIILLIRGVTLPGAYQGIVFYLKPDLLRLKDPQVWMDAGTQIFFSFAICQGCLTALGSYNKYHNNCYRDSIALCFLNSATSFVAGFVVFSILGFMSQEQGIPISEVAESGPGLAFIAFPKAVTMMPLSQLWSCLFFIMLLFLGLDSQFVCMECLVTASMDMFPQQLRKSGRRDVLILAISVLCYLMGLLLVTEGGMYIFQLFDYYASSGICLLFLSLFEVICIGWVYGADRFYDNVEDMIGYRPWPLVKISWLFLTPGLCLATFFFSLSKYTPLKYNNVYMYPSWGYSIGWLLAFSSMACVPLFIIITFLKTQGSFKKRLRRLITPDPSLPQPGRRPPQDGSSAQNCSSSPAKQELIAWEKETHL

mGAT4 [3] = target: T3, mGAT4 (Mus musculus, UniProt P31650); conditions: in presence of 100 μM compound; cited from earlier work
T3 construct: expressed in transfected cells; host or cells: HEK293
T3 sequence (P31650 1-627): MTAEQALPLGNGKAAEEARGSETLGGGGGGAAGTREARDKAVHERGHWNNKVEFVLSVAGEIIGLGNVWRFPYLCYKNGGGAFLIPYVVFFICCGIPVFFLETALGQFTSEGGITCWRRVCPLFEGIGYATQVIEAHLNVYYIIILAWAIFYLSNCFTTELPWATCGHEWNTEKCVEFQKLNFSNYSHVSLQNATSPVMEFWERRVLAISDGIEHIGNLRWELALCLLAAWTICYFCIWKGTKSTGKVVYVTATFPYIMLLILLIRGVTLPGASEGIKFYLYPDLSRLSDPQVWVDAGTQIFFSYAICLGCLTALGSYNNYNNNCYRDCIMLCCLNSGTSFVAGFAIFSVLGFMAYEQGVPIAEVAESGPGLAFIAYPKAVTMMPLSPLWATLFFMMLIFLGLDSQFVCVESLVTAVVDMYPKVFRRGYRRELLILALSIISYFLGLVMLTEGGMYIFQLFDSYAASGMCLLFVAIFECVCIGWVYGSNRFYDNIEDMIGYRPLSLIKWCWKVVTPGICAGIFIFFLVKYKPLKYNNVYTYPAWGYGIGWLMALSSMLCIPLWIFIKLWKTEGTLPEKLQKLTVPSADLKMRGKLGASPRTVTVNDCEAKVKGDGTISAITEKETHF

mGAT3 [4] = target: T1, mGAT3; assay: [^3H]GABA uptake assay, HEK293 cells expressing mGAT3; type: cell-based; conditions: for remaining activity at 100 µM: HEK293, in presence of 100 μM compound; for IC50: [^3H]GABA uptake, pIC50±SEM
Procedure, shortened: (§1)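 HEK293 cells expressing mouse GATs preincubated 25 min at 37 °C with compound in Krebs buffer pH 7.2, then [3H]GABA added: 8 nM plus 32 nM unlabeled for 4 min (mGAT1/3/4), 20 nM plus 20 nM for 10 min (mGAT2). Filtration, scintillation counting; nonspecific uptake with 10 mM (mGAT1/3/4) or 100 mM GABA (mGAT2); pIC50.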

mGAT2 [5] = target: T2, mGAT2; assay: [^3H]GABA uptake assay, HEK293 cells expressing mGAT2; type: cell-based; conditions: for remaining activity at 100 µM: HEK293, in presence of 100 μM compound
Procedure, shortened: as §1

mGAT4 [6] = target: T3, mGAT4; assay: [^3H]GABA uptake assay, HEK293 cells expressing mGAT4; type: cell-based; conditions: for remaining activity at 100 µM: HEK293, in presence of 100 μM compound; for IC50: [^3H]GABA uptake, pIC50±SEM
Procedure, shortened: as §1

mGAT1 [7] = target: T4, mGAT1 (Mus musculus, UniProt P31648); assay: MS Binding Assay with NO711 as native MS marker; conditions: for remaining activity at 100 µM: in presence of 100 μM compound, read-out: remaining specific NO711 binding (mGAT1); for Ki: MS Binding Assay, NO711 marker, pKi±SEM, read-out: pK i mGAT1 (converted)
T4 construct: expressed in transfected cells; host or cells: HEK293
Procedure, shortened: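 Competitive MS binding using membranes from HEK293 cells stably expressing mGAT1, with 10 nM unlabeled NO711 as marker and compounds at 7 concentrations. Nonspecific binding defined with 100 mM GABA. Bound NO711 eluted after filtration and quantified by LC-ESI-MS/MS against [2H10]NO711; Ki derived.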

mGAT1 [8] = target: T4, mGAT1; assay: [^3H]GABA uptake assay, HEK293 cells expressing mGAT1; type: cell-based; conditions: for remaining activity at 100 µM: HEK293, in presence of 100 μM compound
Procedure, shortened: as §1

mGAT4 [9] = target: T3, mGAT4; assay: GABA uptake inhibition at mGAT4 with varied preincubation time; type: cell-based

Row | remaining activity at 100 µM (mGAT3 [4]) [%] | remaining activity at 100 µM (mGAT2 [5]) [%] | remaining activity at 100 µM (mGAT4 [6]) [%] | remaining activity at 100 µM (mGAT1 [7]) [%] | remaining activity at 100 µM (mGAT1 [8]) [%] | IC50 (mGAT4 [6]) [µM] | Ki (mGAT1 [7]) [µM] | Structure (SMILES) | further results
1 |  |  |  |  |  |  |  | Cc1ccsc1C(=CCCN1CCC[C@@H](C(=O)O)C1)c1sccc1C [Tiagabine] | remaining [^3H]GABA uptake mGAT3 (mGAT3 [1]; in presence of 100 μM compound): 64%; remaining [^3H]GABA uptake mGAT2 (mGAT2 [2]): 50%; remaining [^3H]GABA uptake mGAT4 (mGAT4 [3]): 73%
2 |  |  |  |  |  |  |  | COc1ccc(C(OCCN2CCC[C@H](C(=O)O)C2)(c2ccc(OC)cc2)c2ccc(OC)cc2C)cc1 [DDPM‐859] | pIC50 mGAT3 (mGAT3 [1]; [^3H]GABA uptake, pIC50±SEM): 4.85±0.04; pIC50 mGAT2 (mGAT2 [2]; [^3H]GABA uptake, pIC50±SEM): 4.12±0.08
3 | 79 | 87.3 | 76.1 | 74.8 | 84.6 |  |  | CCOC(=O)c1ccc(C(OCCN2CCCC(C(=O)OCC)C2)(c2ccc(OC)cc2)c2ccc(OC)cc2)cc1 (racemic) [12 e, rac‐ Ethyl 1‐(2‐{[4‐(ethoxycarbonyl)phenyl]bis[4‐methoxyphenyl]‐methoxy}ethyl)piperidine‐3‐carboxylate] | 
4 | 50.6 |  |  | 72.9 | 64.9 | 89.1 |  | CCOC(=O)C1CCCN(CCOC(c2ccc(COC)cc2)(c2ccc(COC)cc2)c2ccc(OC)cc2)C1 (racemic) [12 h, rac‐ Ethyl 1‐(2‐{bis[4‐(methoxymethyl)phenyl][4‐methoxyphenyl]‐methoxy}ethyl)piperidine‐3‐carboxylate] | IC50 (mGAT2 [5]; [^3H]GABA uptake, pIC50±SEM): 50.1 µM
5 | 55.2 | 66.4 | 84.2 | 84.6 | 72.9 |  |  | CCOC(=O)C1CCCN(CCOC(c2ccc(OC)cc2)(c2ccc(OC)cc2)c2ccc(C(C)=O)cc2)C1 (racemic) [12 b, rac‐ Ethyl 1‐{2‐[(4‐acetylphenyl)bis(4‐methoxyphenyl)methoxy]ethyl}‐piperidine‐3‐carboxylate] | 
6 | 81.8 | 72.9 |  |  | 84.9 | 26.3 | 93.3 | COc1ccc(C(OCCN2CCCC(C(=O)O)C2)(c2ccc(OC)cc2)c2ccc3nccn3c2)cc1 (racemic) [5 d, rac‐ 1‐(2‐{Imidazo[1,2‐a]pyridin‐6‐ylbis(4‐methoxyphenyl)methoxy}‐ethyl)piperidine‐3‐carboxylic acid] | 
7 | 90.9 | 96.1 | 72.2 | 86.2 | 81.8 |  |  | COc1ccc(C(OCCN2CCCC(C(=O)O)C2)(c2ccc(CNCC(=O)O)cc2)c2ccc(OC)cc2)cc1 (racemic) [5 n, rac‐ 1‐{2‐[(4‐{[(Carboxymethyl)amino]methyl}phenyl)bis(4‐methoxy‐phenyl)methoxy]ethyl}piperidine‐3‐carboxylic acid] | 
8 |  |  |  |  |  |  |  | COc1ccc(C(OCCN2CCC[C@H](C(=O)O)C2)(c2ccc(OC)cc2)c2ccc(OC)cc2)cc1 [(S)‐SNAP‐5114, reference compound] | Normalized pIC50 mGAT4 (mGAT4 [9]; preincubation time 10 min, experiments 1-3, relative to 25 min = 100.00): 97.20; Normalized pIC50 mGAT4 (mGAT4 [9]; preincubation time 25 min, experiments 1-3 (reference)): 100.00; Normalized pIC50 mGAT4 (mGAT4 [9]; preincubation time 25 min, experiments 4-6 (reference)): 100.00; Normalized pIC50 mGAT4 (mGAT4 [9]; preincubation time 60 min, experiments 1-3, relative to 25 min = 100.00): 101.23; Normalized pIC50 mGAT4 (mGAT4 [9]; preincubation time 60 min, experiments 4-6, relative to 25 min = 100.00): 103.79; remaining [^3H]GABA uptake mGAT2 (mGAT2 [2]): 56%
9 |  | 64.2 |  |  | 64.6 | 3.72 | 30.9 | COc1ccc(C(OCCN2CCCC(C(=O)O)C2)(c2ccc(OC)cc2)c2ccc(C(C)=O)cc2)cc1 (racemic) [5 b, rac ‐1‐{2‐[(4‐Acetylphenyl)bis(4‐methoxyphenyl)methoxy]ethyl}piperidine‐3‐carboxylic acid] | IC50 (mGAT3 [4]): 57.5 µM
10 |  | 50.1 |  |  |  | 13.8 | 12.3 | COc1ccc(C(OCCN2CCC[C@@H](C(=O)O)C2)(c2ccc(C=O)cc2)c2ccc(OC)cc2)cc1 [(R)‐5 a] | IC50 (mGAT3 [4]): 33.9 µM; IC50 (mGAT1 [8]; [^3H]GABA uptake, pIC50±SEM): 35.5 µM
11 | 65 | 70.4 | 73.8 | 104 | 79.3 |  |  | CCOC(=O)C1CCCN(CCCC(O)(c2ccc(OC)cc2)c2ccc(OC)cc2)C1 (racemic) [12 l, rac ‐Ethyl 1‐[4‐hydroxy‐4,4‐bis(4‐methoxyphenyl)butyl]piperidine‐3‐carboxylate] | 
12 |  | 82.9 |  |  | 74.8 | 8.51 | 39.8 | COc1ccc(C(OCCN2CCCC(C(=O)O)C2)(c2ccc(C#N)cc2)c2ccc(OC)cc2)cc1 (racemic) [5 g, rac ‐1‐{2‐[(4‐Cyanophenyl)bis(4‐methoxyphenyl)methoxy]ethyl}piperidine‐3‐carboxylic acid] | IC50 (mGAT3 [4]): 49 µM
13 | 58.7 | 91.6 |  | 55 | 78.1 | 12.6 |  | COc1ccc(C(OCCN2CCCC(C(=O)O)C2)(c2ccc(CO)cc2)c2ccc(OC)cc2)cc1 (racemic) [5 m, rac‐1‐(2‐{[4‐(Hydroxymethyl)phenyl]bis[4‐methoxyphenyl]methoxy}‐ethyl)piperidine‐3‐carboxylic acid] | 
